The values below come from patent US5801180A, “Quinazoline derivatives” (priority 1991, dated 1998).

Counter-ions that a name gives are not always drawn.

The experiment concerns the target T1, cGMP-PDE prepared from the swine aeorta (Sus scrofa, UniProt A0A287B475).
T1 construct: The swine aeorta was sliced; from tissue; host or cells: swine aorta, 100000×g supernatant, DEAE-Toyopearl 650S fraction
Briefly: Enzyme inhibiting action with the use of cGMP-PDE prepared from the swine aorta. The experiment is classed as biochemical. Particulars: CaM-independent cGMP-PDE, 1 mM EGTA, 1 μM cGMP substrate, DMSO 4% or below. How it is done: Enzyme inhibiting action with the use of cGMP-PDE prepared from the swine aeorta
The enzymatic activity of the cGMP-PDE prepared from the swine aeorta was determined according to the method of Thompson et al. ^(1). The enzymatic activity thereof was determined in the presence of 1 mM EGTA by the use of 1 μM cGMP as a substrate. The compound of the present invention was dissolved in DMSO, added to the reaction liquid and examined for the inhibitory activity. The final concentration of DMSO in the reaction liquid was adjusted to 4% or below. (1) Thompson, W. J. and Strada, S. J., Cyclic Nucleotide Phosphodiesterase (PDE), in Methods of Enzymatic Analysis, vol 4, p.127-234, 1984.
The swine aeorta was sliced, followed by the addition of 10 times by volume as much Buffer A (20 mM Tris/HCl, 2 mM Mg acetate, 1 mM Dithiothreitol, 5 mM EDTA, 1400 TIU/liter aprotinin, 10 mg/liter leupeptin, 1 mM benzamidine, 0.2 mM PMSF, pH 7.5). The obtained mixture was homogenized and the homogenate was centrifuged at 100000×g for one hour. The obtained supernatant was supplied a DEAE-Toyopearl 650S (Tosoh, Tokyo, Japan) column. After the column was washed with Buffer B (50 mM Tris/HCl, 0.1 mM EGTA, 2 mM Mg acetate, 1 mM Dithiothreitol, 0.2 mM PMSF, pH 7.5), gradient elution with 0.05 to 0.4M NaCl was conducted. Thus, CaM-independent cGMP-PDE fractions were obtained.
`N#Cc1ccc2nc(N3CCOCC3)nc(NCc3ccc4c(c3)OCO4)c2c1` [Example 181, 2-Morpholino-4-(3,4-methylenedioxybenzyl)amino-6-cyanoquinazoline] registered an IC50 of 5 nM. In other words, the single-digit nanomolar range.

Take `Clc1ccc2nc(N3CCOCC3)nc(NCc3ccc4c(c3)OCO4)c2c1` [Example 182, 2-Morpholino-4-(3,4-methylenedioxybenzyl)amino-6-chloroquinazoline]: the IC50 worked out at 8 nM.

Take `COc1ccc(CNc2nc(N3CCOCC3)nc3ccc(C#N)cc23)cc1Cl` [Example 183, 2-Morpholino-4-(3-chloro-4-methoxybenzyl)amino-6-cyanoquinazoline]: inhibition was half-maximal at 0.4 nM (IC50).

As to `N#Cc1ccc2nc(N3CCC(O)CC3)nc(NCc3ccc4c(c3)OCO4)c2c1` [Example 184, 2-(4-Hydroxypiperidino)-4-(3,4-methylenedioxybenzyl)amino-6-cyanoquinazoline], the IC50 amounted to 6 nM.

For `OC1CCN(c2nc(NCc3ccc4c(c3)OCO4)c3cc(Cl)ccc3n2)CC1` [Example 185, 2-(4-Hydroxypiperidino)-4-(3,4-methylenedioxybenzyl)amino-6-chloroquinazoline], the IC50 stood at 10 nM.

`COc1cc2c(NCc3ccc4c(c3)OCO4)nc(NCCO)nc2c(OC)c1OC` [Example 187, 2-(2-Hydroxyethyl)amino-4-(3,4-methylenedioxybenzyl)amino-6,7,8-trimethoxyquinazoline] returned an IC50 of 120 nM.

`OCCNc1nc(NCc2ccc3c(c2)OCO3)c2cc(Cl)ccc2n1` [Example 188, 2-(2-Hydroxyethyl)amino-4-(3,4-methylenedioxybenzyl)amino-6-chloroquinazoline] registered an IC50 of 29 nM.

Turning to `CN(CCO)c1nc(NCc2ccc3c(c2)OCO3)c2cc(Cl)ccc2n1` [Example 189, 2-[N-(2-Hydroxyethyl)-N-methylamino]-4-(3,4-methylenedioxybenzyl)amino-6-chloroquinazoline], the IC50 amounted to 16 nM.

As to `OCC1CCCN1c1nc(NCc2ccc3c(c2)OCO3)c2cc(Cl)ccc2n1` (stereo not shown) [Example 190, 2-(9-Hydroxymethylpyrrolidin-1-yl)-4-(3,4-methylenedioxyybenzyl)amino-6-chloroquinazoline], half-maximal inhibition (IC50) was put at 5 nM.

Turning to `OCCN(CCO)c1nc(NCc2ccc3c(c2)OCO3)c2cc(Cl)ccc2n1` [Example 191, 2-Bis(2-hydroxyethyl)amino-4-(3,4-methylenedioxybenzyl)amino-6-chloroquinazoline], 19 nM corresponded to half-maximal inhibition (IC50).

Consider `Clc1ccc2nc(-n3ccnc3)nc(NCc3ccc4c(c3)OCO4)c2c1` [Example 192, 2-(1-Imidazolyl)-4-(3,4-methylenedioxybenzyl)amino-6-chloroquinazoline], for which the IC50 stood at 20 nM. The IC50 values of the last two compounds are within 1.5-fold of each other.

In turn, `N#Cc1ccc2nc(-n3ccnc3)nc(NCc3ccc4c(c3)OCO4)c2c1` [Example 193, 2-(Imidazol-1-yl)-4-(3,4-methylenedioxybenzyl)amino-6-cyanoquinazoline] gave an IC50 of 0.8 nM.

Take `CCCCCNc1nc(NCc2ccc3c(c2)OCO3)c2cc(Cl)ccc2n1` [Example 194, 2-Pentylamino-4-(3,4-methylenedioxybenzyl)amino-6-chloroquinazoline]: it took 4 nM to reach half-maximal inhibition (IC50). This IC50 is about 5-fold higher than that of the compound before.

Regarding `NC(=O)CNc1nc(NCc2ccc3c(c2)OCO3)c2cc(Cl)ccc2n1` [Example 197], the concentration for half-maximal inhibition (IC50) worked out at 66 nM.

As for `Nc1nc(NCc2ccc3c(c2)OCO3)c2cc(Cl)ccc2n1` [Example 200, 2-Amino-4-(3,4-methylenedioxybenzyl)amino-6-chloroquinazoline], the midpoint of inhibition, the IC50, lay at 64 nM.

`N#Cc1ccc2nc(N)nc(NCc3ccc4c(c3)OCO4)c2c1` [Example 201, 2-Amino-4-(3,4-methylenedioxybenzyl)amino-6-cyanoquinazoline] returned an IC50 of 49 nM.

Compound `CNC(=O)Nc1nc(NCc2ccc3c(c2)OCO3)c2cc(Cl)ccc2n1` [Example 202, 2-(Methylcarbamoyl)amino-4-(3,4-methylenedioxybenzyl)amino-6-chloroquinazoline] gave a half-inhibitory concentration (IC50) of 2 nM.

Turning to `CNC(=O)N(C(=O)NC)c1nc(NCc2ccc3c(c2)OCO3)c2cc(Cl)ccc2n1` [Example 203, 2-Bis(methylcarbamoyl)amino-4-(3,4-methylenedioxybenzyl)amino-6-chloroquinazoline], 28 nM corresponded to half-maximal inhibition (IC50).

Consider `CCCCNC(=O)Nc1nc(NCc2ccc3c(c2)OCO3)c2cc(Cl)ccc2n1` [Example 204, 2-(n-Butylcarbamoyl)amino-4-(3,4-methylenedioxybenzyl)amino-6-chloroquinazoline], for which the IC50 stood at 4 nM.

For `CCOC(=O)C1CCN(c2nc(NCc3ccc4c(c3)OCO4)c3cc(Cl)ccc3n2)CC1` [Example 206, 2-(4-Ethoxycarbonylpiperidino)-4-(3,4-methylenedioxybenzyl)amino-6-chloroquinazoline hydrochloride], the IC50 amounted to 29 nM.

`CCOC(=O)C1CCN(c2nc(NCc3ccc(OC)c(Cl)c3)c3cc(C#N)ccc3n2)CC1` [Example 208, 2-(4-Ethoxycarbonylpiperidino)-4-(3-chloro-4-methoxybenzyl)amino-6-cyanoquinazoline] displayed an IC50 of 0.19 nM. Against the preceding compound, the IC50 is about 150-fold lower.

`CCOC(=O)CNc1nc(NCc2ccc3c(c2)OCO3)c2cc(Cl)ccc2n1` [Example 213, 2-(Ethoxycarbonylmethyl)amino-4-(3,4-methylenendioxybenzyl)amino-6-chloroquinazoline] returned an IC50 of 23 nM. Compared with the last compound, the IC50 is about 120-fold higher.

Compound `CCOC(=O)CCCNc1nc(NCc2ccc3c(c2)OCO3)c2cc(Cl)ccc2n1` [Example 214, 2-(3-Ethoxycarbonylpropyl)amino-4-(3,4-methylenedioxybenzyl)amino-6-chloroquinazoline] yielded an IC50 of 9 nM.

For the compound `CCOC(=O)CCCCCNc1nc(NCc2ccc3c(c2)OCO3)c2cc(Cl)ccc2n1` [Example 216, 2-(5-Ethoxycarbonylpentyl)amino-4-(3,4-methylenedioxybenzyl)amino-6-chloroquinazoline], inhibition was half-maximal at 17 nM (IC50).

`CCOC(=O)CCCN(C)c1nc(NCc2ccc(OC)c(Cl)c2)c2cc(C#N)ccc2n1` [Example 220] registered a concentration for half-maximal inhibition (IC50) of 0.24 nM. This IC50 lies about 71-fold lower than the previous one.

As for `O=C(O)C1CCN(c2nc(NCc3ccc4c(c3)OCO4)c3cc(Cl)ccc3n2)CC1` [Example 222, 2-(4-Carboxypiperidino)-4-(3,4-methylenedioxybenzyl)amino-6-chloroquinazoline], half-maximal inhibition (IC50) required 6.5 nM.

Compound `N#Cc1ccc2nc(N3CCC(C(=O)O)CC3)nc(NCc3ccc4c(c3)OCO4)c2c1` [Example 227, 2-(4-Carboxypiperidino)-4-(3,4-methylenedioxybenzyl)amino-6-cyanoquinazoline] yielded an IC50 of 2.6 nM.

`COc1ccc(CNc2nc(N3CCC(C(=O)O)CC3)nc3ccc(C#N)cc23)cc1Cl` [Example 228, 2-(4-Carboxypiperidino)-4-(3-chloro-4-methoxybenzyl)amino-6-cyanoquinazoline] yielded a half-maximal inhibitory concentration (IC50) of 0.52 nM. This IC50 is about 5-fold lower than that of the compound before.

On to `CN(CCCC(=O)O)c1nc(NCc2ccc3c(c2)OCO3)c2cc(C#N)ccc2n1` [Example 230, 2-[N-(3-Carboxypropyl)-N-methylamino]-4-(3,4-methylenedioxybenzyl)amino-6-cyanoquinazoline], for which half-maximal inhibition (IC50) required 5.8 nM. This IC50 lies about 11-fold higher than the previous one.

In turn, `COc1cc2c(NCc3ccc4c(c3)OCO4)nc(N3CCC(C(=O)O)CC3)nc2c(OC)c1OC` [Example 231, 2-(4-Carboxypiperidino)-4-(3,4-methylenedioxybenzyl)amino-6,7,8-trimethoxyquinazoline] returned a concentration for half-maximal inhibition (IC50) of 410 nM. This IC50 is about 71-fold higher than that of the compound before.

In the case of `COc1ccc(CNc2nc(N3CCC(C(=O)O)CC3)nc3c(OC)c(OC)c(OC)cc23)cc1Cl` [Example 232, 2-(4-Carboxypiperidino)-4-(3-chloro-4-methoxybenzyl)amino-6,7,8-trimethoxyquinazoline], the concentration for half-maximal inhibition (IC50) is 44 nM.

As to `COc1ccc2nc(N3CCC(C(=O)O)CC3)nc(NCc3ccc4c(c3)OCO4)c2c1` [Example 233, 2-(4-Carboxypiperidino)-4-(3,4-methylenedioxybenzyl)amino-6-methoxyquinazoline], the IC50 was found to be 13 nM.

Regarding `COc1ccc2nc(N3CCC(C(=O)O)CC3)nc(NCc3ccc(OC)c(Cl)c3)c2c1` [Example 234, 2-(4-Carboxypiperidino)-4-(3-chloro-4-mehtoxybenzyl)amino-6-methoxyquinazoline], 6 nM corresponded to half-maximal inhibition (IC50).

Consider `COc1ccc(CNc2nc(N3CCC(C(=O)O)CC3)nc3ccc(Cl)cc23)cc1Cl` [Example 235, 2-(4-Carboxypiperidino)-4-(3-chloro-4-methoxybenzyl)amino-6-chloroquinazoline], for which the IC50 was determined as 2 nM.

Compound `O=C(O)C1CCN(c2nc(NCc3ccc4[nH]cnc4c3)c3cc(Cl)ccc3n2)CC1` [Example 236, 2-(4-Carboxypiperidino)-4-(benzimidazol-5-yl)methylamino-6-chloroquinazoline] returned a half-maximal inhibitory concentration (IC50) of 6 nM.

Regarding `O=C(O)CNc1nc(NCc2ccc3c(c2)OCO3)c2cc(Cl)ccc2n1` [Example 237, 2-(Carboxymethyl)amino-4-(3,4-methylenedioxybenzyl)amino-6-chloroquinazoline], half-maximal inhibition (IC50) was put at 14 nM. Against the preceding compound, the IC50 is about 2.3-fold higher.

In turn, `O=C(O)CCCNc1nc(NCc2ccc3c(c2)OCO3)c2cc(Cl)ccc2n1` [Example 238, 2-(3-Carboxypropyl)amino-4-(3,4-methylenedioxybenzyl)amino-6-chloroquinazoline] gave a 50% inhibitory concentration (IC50) of 5 nM.
